Assay results as given in ChEMBL document CHEMBL1133618, “Synthesis and structure-activity relationships of 7-substituted 3-(2, 6-dichlorophenyl)-1,6-naphthyridin-2(1H)-ones as selective inhibitors of pp60(c-src)” (J Med Chem, 2000).

Key:
[1] = target: Fibroblast growth factor receptor 1 (Homo sapiens, UniProt P11362); experiment: Inhibitory activity against fibroblast growth factor receptor 1
[2] = target: Platelet-derived growth factor receptor beta (Mus musculus, UniProt P05622); experiment: Inhibitory activity against mouse PDGF beta receptor tyrosine kinase
[3] = target: Proto-oncogene tyrosine-protein kinase Src (Gallus gallus) (UniProt P00523); experiment: Inhibitory activity against avian c-Src tyrosine kinase was determined.
HT-29 = experiment: Inhibitory activity against HT-29 human colon adenocarcinoma cells was determined.; assay type: functional, cell-based
SW-620 = experiment: Inhibitory activity against SW-620 human colon adenocarcinoma cells was determined.; assay type: functional, cell-based
HCT-8 = experiment: Inhibitory activity against HCT-8 human colon adenocarcinoma cells was determined.; assay type: functional, cell-based

Platelet-derived growth factor receptor beta, sequence (P05622 whole entry): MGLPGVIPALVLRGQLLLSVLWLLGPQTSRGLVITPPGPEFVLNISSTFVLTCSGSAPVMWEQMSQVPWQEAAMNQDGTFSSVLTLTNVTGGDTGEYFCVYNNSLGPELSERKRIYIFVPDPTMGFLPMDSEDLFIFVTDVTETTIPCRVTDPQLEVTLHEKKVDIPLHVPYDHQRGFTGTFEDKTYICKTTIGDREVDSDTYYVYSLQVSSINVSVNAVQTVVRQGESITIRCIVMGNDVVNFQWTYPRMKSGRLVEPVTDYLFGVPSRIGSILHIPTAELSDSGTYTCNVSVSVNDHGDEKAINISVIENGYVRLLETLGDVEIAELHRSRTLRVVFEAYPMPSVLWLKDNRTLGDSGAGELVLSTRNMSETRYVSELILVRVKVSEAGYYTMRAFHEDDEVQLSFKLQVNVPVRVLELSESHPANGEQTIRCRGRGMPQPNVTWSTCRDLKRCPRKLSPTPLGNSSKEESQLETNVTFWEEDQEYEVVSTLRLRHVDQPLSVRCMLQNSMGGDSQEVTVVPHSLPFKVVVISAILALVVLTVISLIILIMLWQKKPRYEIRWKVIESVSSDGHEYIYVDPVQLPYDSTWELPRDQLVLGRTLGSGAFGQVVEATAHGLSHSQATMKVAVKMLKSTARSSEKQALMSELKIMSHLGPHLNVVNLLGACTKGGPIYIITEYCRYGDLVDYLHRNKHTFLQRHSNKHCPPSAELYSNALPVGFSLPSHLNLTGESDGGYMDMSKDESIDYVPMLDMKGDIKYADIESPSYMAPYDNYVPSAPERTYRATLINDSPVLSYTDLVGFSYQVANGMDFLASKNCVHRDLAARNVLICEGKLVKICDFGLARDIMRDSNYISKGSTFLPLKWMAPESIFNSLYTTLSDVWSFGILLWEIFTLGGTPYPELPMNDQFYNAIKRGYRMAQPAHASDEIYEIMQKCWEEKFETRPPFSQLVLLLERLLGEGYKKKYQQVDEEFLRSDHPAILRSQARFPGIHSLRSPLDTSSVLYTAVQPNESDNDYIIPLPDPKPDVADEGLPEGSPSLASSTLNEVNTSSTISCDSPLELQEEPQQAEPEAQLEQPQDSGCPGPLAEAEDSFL
Fibroblast growth factor receptor 1, sequence (P11362 whole entry): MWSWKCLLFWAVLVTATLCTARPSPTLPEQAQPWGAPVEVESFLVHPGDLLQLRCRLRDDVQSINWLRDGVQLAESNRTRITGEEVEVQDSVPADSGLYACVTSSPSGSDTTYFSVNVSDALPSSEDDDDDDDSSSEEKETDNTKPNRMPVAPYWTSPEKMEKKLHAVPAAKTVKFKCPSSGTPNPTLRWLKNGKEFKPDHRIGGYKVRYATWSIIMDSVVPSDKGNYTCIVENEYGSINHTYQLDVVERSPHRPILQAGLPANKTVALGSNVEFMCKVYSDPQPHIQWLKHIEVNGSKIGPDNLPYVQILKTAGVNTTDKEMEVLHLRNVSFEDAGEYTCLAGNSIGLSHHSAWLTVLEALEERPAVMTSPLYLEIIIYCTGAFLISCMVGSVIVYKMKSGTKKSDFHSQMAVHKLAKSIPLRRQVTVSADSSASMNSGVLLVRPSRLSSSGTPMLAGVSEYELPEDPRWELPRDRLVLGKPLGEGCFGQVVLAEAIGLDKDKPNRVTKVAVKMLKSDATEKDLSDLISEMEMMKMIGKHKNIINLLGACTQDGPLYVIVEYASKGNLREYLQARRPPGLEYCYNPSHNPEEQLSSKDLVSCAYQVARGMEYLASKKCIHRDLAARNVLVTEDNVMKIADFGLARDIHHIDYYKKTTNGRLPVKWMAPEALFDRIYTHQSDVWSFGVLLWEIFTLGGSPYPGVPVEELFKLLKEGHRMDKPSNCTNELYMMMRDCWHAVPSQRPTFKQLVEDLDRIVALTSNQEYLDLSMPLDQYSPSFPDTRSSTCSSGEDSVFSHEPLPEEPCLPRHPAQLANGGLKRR

IC50 [1] | IC50 [2] | IC50 [3] | IC50 (HT-29) | IC50 (SW-620) | IC50 (HCT-8) | SMILES
2.2 µM | 1.4 µM |  |  |  |  | Cn1c(=O)c(-c2c(Cl)cccc2Cl)cc2cnc(Nc3ccccc3)cc21
 | 3.2 µM |  |  |  |  | Cn1c(=O)c(-c2c(Cl)cccc2Cl)cc2cnc(NCCCn3ccnc3)cc21
> 50 µM | > 50 µM |  |  |  |  | CN(C)c1cc2c(cn1)cc(-c1c(Cl)cccc1Cl)c(=O)n2C
> 50 µM | > 50 µM |  |  |  |  | COc1ccc(Nc2ccc3cc(-c4c(Cl)cccc4Cl)c(=O)n(C)c3n2)cc1
 |  | 0.02 µM |  |  |  | COc1ccc(Nc2ncc3cc(-c4c(Cl)cccc4Cl)c(=O)n(C)c3n2)cc1
 | 5.8 µM |  |  |  |  | Cn1c(=O)c(-c2c(Cl)cccc2Cl)cc2cnc(NCCCN3CCOCC3)cc21
 |  | 0.75 µM | 4.1 µM | 5 µM | 7.8 µM | CNc1ncc2cc(-c3c(Cl)cccc3Cl)c(=O)n(C)c2n1
8.7 µM | 2.8 µM |  |  |  |  | Cn1c(=O)c(-c2c(Cl)cccc2Cl)cc2cnc(Nc3ccc(N4CCOCC4)cc3)cc21
 |  | 0.01 µM | 0.14 µM |  | 16 µM | Cn1c(=O)c(-c2c(Cl)cccc2Cl)cc2cnc(Nc3ccncc3)nc21
 |  |  | 0.83 µM | 4.3 µM | 2.1 µM | CN1CCN(c2ccc(Nc3cc4c(cn3)cc(-c3c(Cl)cccc3Cl)c(=O)n4C)cc2)CC1
3.5 µM | 6.9 µM |  | 3.7 µM | 8.7 µM | 7.3 µM | Cn1c(=O)c(-c2c(Cl)cccc2Cl)cc2cnc(Nc3ccncc3)cc21
 | 0.26 µM |  |  |  |  | CN1CCN(CCOc2ccc(Nc3cc4c(cn3)cc(-c3c(Cl)cccc3Cl)c(=O)n4C)cc2)CC1
> 50 µM | > 50 µM |  |  |  |  | CCN(CC)CCNc1ncc2cc(-c3c(Cl)cccc3Cl)c(=O)n(C)c2n1
1.9 µM | 16 µM |  |  |  |  | CCN(CC)C(=O)c1ccc(Nc2cc3c(cn2)cc(-c2c(Cl)cccc2Cl)c(=O)n3C)cc1
> 50 µM | > 50 µM |  |  |  |  | Cn1c(=O)c(-c2c(Cl)cccc2Cl)cc2ccc(Nc3ccccc3)nc21
 |  | 0.06 µM |  |  |  | CN1CCN(CCCCCNc2ncc3cc(-c4c(Cl)cccc4Cl)c(=O)n(C)c3n2)CC1
0.21 µM | 8 µM |  | 2.8 µM |  | 1.7 µM | CNc1cc2c(cn1)cc(-c1c(Cl)cccc1Cl)c(=O)n2C
0.072 µM | 1.4 µM |  |  |  |  | CN1CCN(CCCNc2cc3nc(O)c(-c4c(Cl)cccc4Cl)cc3cn2)CC1
 | 0.1 µM |  | 0.75 µM | 6.7 µM | 2.8 µM | CCN(CC)CCOc1ccc(Nc2cc3c(cn2)cc(-c2c(Cl)cccc2Cl)c(=O)n3C)cc1
> 50 µM | > 50 µM |  |  |  |  | Cn1c(=O)c(-c2c(Cl)cccc2Cl)cc2ccc(N)nc21
 |  |  |  | > 25 µM | > 25 µM | CN1CCN(CCCCNc2ncc3cc(-c4c(Cl)cccc4Cl)c(=O)n(C)c3n2)CC1

IC50 [1] | IC50 [2] | IC50 [3] | IC50 (HT-29) | IC50 (SW-620) | IC50 (HCT-8) | SMILES
2.2 µM | 6.8 µM |  |  |  |  | COc1ccc(Nc2cc3c(cn2)cc(-c2c(Cl)cccc2Cl)c(=O)n3C)cc1
 |  |  | 0.24 µM | 0.12 µM | 0.24 µM | CN1CCN(c2ccc(Nc3ncc4cc(-c5c(Cl)cccc5Cl)c(=O)n(C)c4n3)cc2)CC1
> 50 µM | > 50 µM |  |  |  |  | CCN(CC)CCOc1ccc(Nc2ccc3cc(-c4c(Cl)cccc4Cl)c(=O)n(C)c3n2)cc1
 |  |  | 0.28 µM | 0.27 µM | 0.42 µM | CCN(CC)CCOc1ccc(Nc2ncc3cc(-c4c(Cl)cccc4Cl)c(=O)n(C)c3n2)cc1 [PD-0166285]
> 50 µM | > 50 µM |  |  |  |  | CN1CCN(CCCNc2ccc3cc(-c4c(Cl)cccc4Cl)c(=O)n(C)c3n2)CC1
0.08 µM | 2.4 µM |  |  |  |  | CCN(CC)CCCCNc1cc2c(cn1)cc(-c1c(Cl)cccc1Cl)c(=O)n2C
0.17 µM | 1.1 µM |  |  |  |  | CCN(CC)CCCCNc1cc2nc(O)c(-c3c(Cl)cccc3Cl)cc2cn1
0.17 µM | 2.8 µM |  | 2.2 µM | 7.6 µM | 2.8 µM | CN1CCN(CCCNc2cc3c(cn2)cc(-c2c(Cl)cccc2Cl)c(=O)n3C)CC1
0.08 µM | 0.74 µM |  |  |  |  | CCN(CC)CCCCCNc1cc2c(cn1)cc(-c1c(Cl)cccc1Cl)c(=O)n2C
 | 0.9 µM |  |  |  |  | CN1CCN(CCCOc2ccc(Nc3cc4c(cn3)cc(-c3c(Cl)cccc3Cl)c(=O)n4C)cc2)CC1
33 µM | > 50 µM |  |  |  |  | CCN(CC)CCNc1cc2c(cn1)cc(-c1c(Cl)cccc1Cl)c(=O)n2C
 |  |  |  | 2.6 µM |  | Cn1c(=O)c(-c2c(Cl)cccc2Cl)cc2cnc(N)nc21
0.18 µM | 0.29 µM |  |  |  |  | CCN(CC)C(=O)c1ccc(Nc2ncc3cc(-c4c(Cl)cccc4Cl)c(=O)n(C)c3n2)cc1
 | 9.9 µM |  |  |  |  | CN1CCN(CCCCCNc2cc3c(cn2)cc(-c2c(Cl)cccc2Cl)c(=O)n3C)CC1
0.25 µM | 0.36 µM |  |  |  |  | CCN(CC)CCCOc1ccc(Nc2cc3c(cn2)cc(-c2c(Cl)cccc2Cl)c(=O)n3C)cc1
> 50 µM | > 50 µM |  |  |  |  | CCN(CC)CCCNc1ccc2cc(-c3c(Cl)cccc3Cl)c(=O)n(C)c2n1
0.15 µM | 4.6 µM |  |  |  |  | CCN(CC)CCCNc1cc2c(cn1)cc(-c1c(Cl)cccc1Cl)c(=O)n2C
0.38 µM | 3.6 µM |  | 1.9 µM |  | 2.2 µM | Cn1c(=O)c(-c2c(Cl)cccc2Cl)cc2cnc(N)cc21
 |  | 0.15 µM | 15 µM | 7.5 µM | 2.5 µM | CN1CCN(CCCNc2ncc3cc(-c4c(Cl)cccc4Cl)c(=O)n(C)c3n2)CC1
 | 1.1 µM |  | 1.6 µM | 2.6 µM | 2.4 µM | CN1CCN(CCCCNc2cc3c(cn2)cc(-c2c(Cl)cccc2Cl)c(=O)n3C)CC1
 |  | 0.02 µM |  |  |  | Cn1c(=O)c(-c2c(Cl)cccc2Cl)cc2cnc(Nc3ccccc3)nc21

SMILES | IC50 [1] | IC50 [2] | IC50 [3] | IC50 (HT-29) | IC50 (SW-620) | IC50 (HCT-8)
CCN(CC)CCCOc1ccc(Nc2cc3nc(O)c(-c4c(Cl)cccc4Cl)cc3cn2)cc1 | 0.44 µM | 0.79 µM |  |  |  | 
Cn1c(=O)c(-c2c(Cl)cccc2Cl)cc2cnc(Nc3ccc(N4CCOCC4)cc3)nc21 | 0.1 µM | 0.64 µM |  | 0.2 µM | 0.17 µM | 1.5 µM
